In one data set the test system is IκB Kinase (IκK). Description: IκK activity ELISA in YAMC cells exposed to C. rodentium. The format is cell-based, mouse. The conditions noted are these: FIG. 2D. The method, then: Akt kinase can phosphorylate and activate IκB Kinase (IκK), which leads to the de-repression of NFκB by IκB. As described above, COG peptides reduce phosphorylation of IκB and subsequent activation of NFκB induced by a Toll-like receptor 4 agonist (LPS). To determine if COG peptides also affect IκK activation, IκK activity was assessed in cytoplasmic cellular lysates of young adult mouse colon (YAMC) cells exposed to C. rodentium bacteria alone or in the presence of COG112 (SEQ ID NO: 2). IκK activity was measured using a specific ELISA assay (K-LISATM detection kit, Calbiochem/EMD Biosciences). Cytosolic cell extracts were incubated in glutathionine coated wells of a 96-well plate with a glutathione S transferase (GST)-tagged IκB-α fusion polypeptide substrate that includes the Ser32 and Ser36 IκB-α kinase phosphorylation sites. Phosphorylated GST-IκB-α substrate was detected using horseradish peroxidase-conjugated anti-phospho-IκB-α antibody. Optical density proportional to kinase activity was measured at 450 nm in a plate reader. The time course of IκK activation induced by C. rodentium in the presence (closed squares) or absence (open squares) of COG112 is shown in FIG. 2D. Time 0 indicates cells that were not stimulated with C. rodentium.

Data set [1] concerns B-CLL cells. Description: Annexin V / propidium iodide apoptosis assay on B-CLL cells. The format is cell-based, human. The method, then: In a first series of experiments, apoptosis assays using Annexin V staining were performed on freshly isolated B-CLL cells to determine if COG112 could reverse the anti-apoptotic state in these cells and induce apoptosis. […] Apoptosis was measured using the Annexin V-FITC apoptosis detection kit (BD Biosciences-Pharmingen). COG-treated and untreated cells were Annexin V-FITC- and propidium iodide-stained for 15 minutes in 1× binding buffer (10 mM HEPES, pH 7.4, 140 mM NaCl, 2.5 mM CaCl2) and analyzed by flow cytometry. One aliquot of cells was treated with 100 μg/mL etoposide as a positive control for apoptosis induction.

Data set [2] concerns B-CLL cells. Description: Cytotoxicity on B-CLL cells from CLL patients (MTS assay). The method, then:
To determine whether COG peptides could counteract the overactivation of the Akt/NFkB pathway in B-CLL cells and effectively induce apoptosis, cytotoxicity testing was performed on freshly isolated B-CLL cells from CLL patients with COG peptides. Blood from CLL patients was collected and CD5+/CD19+ CLL cells were isolated using the RosetteSep™ Human B Cell Enrichment Cocktail. This method depletes whole blood of T cells, monocytes, and NK cells using a proprietary antibody cocktail containing anti-CD14, anti-CD2 and anti-CD16 antibodies to remove T cells, monocytes, and NK cells, respectively. The antibody cocktail crosslinks unwanted cells in human whole blood to multiple red blood cells forming immunorosettes thereby increasing the density of the rosetted cells, such that they pellet along with the free RBCs when centrifuged over a buoyant density medium such as Ficoll-Paque®. The highly enriched B-cell or B-CLL cells are left at the interface between Ficoll and the plasma.
COG peptides were applied to the isolated B-CLL cells (0.25×10^6 cells/well in a 96 well plate) for 72 hours, after which viable cells were assessed using the MTS assay ([…]).
Additional B-CLL cells and peripheral blood mononuclear cells (PBMC; i.e., normal B cells) were isolated from leukemia patients and normal volunteers, respectively, and were treated with a range of COG112 concentrations.
A general note: Formazan colour is commonly taken as a measure of viable cells.

Another data set has as its system BCR/ABL fusion protein. Description: Phospho-BCR/ABL Western blot in K562 cells. The conditions noted are these: COG112 0.5 or 1 μM, 24 hours, FIG. 8A. The format is cell-based. Here is the method: As discussed above, constitutive activation of the BCR/ABL fusion protein produced by the Philadelphia chromosome (e.g. product of the t(9;22)(q34;q11) translocation) is the primary causative factor in the persistent signaling that leads to unrestrained cell proliferation and survival in CML. […] Cell lysates were prepared and subject to Western blot analysis to detect activated phospho-BCR/ABL.
A general note: Immunoblotting shows a protein as a band on a membrane.

Data set [3] is described as follows: Cytotoxicity on PBMC from normal volunteers. The conditions noted are these: human, FIG. 4. The format is cell-based.
Another data set has as its system Eμ-TCL1 transgenic mice. Description: CLL in Eμ-TCL1 transgenic mice treated with COG112. The format is in vivo, mouse. The source says:
In the Eμ-TCL1 transgenic mouse model, the TCL1 gene is placed under control of a B-cell-specific IgVH promoter and IgH-Eμ enhancer. These mice develop normally into adulthood but later develop enlarged spleens, livers, and lymph nodes that are accompanied by high blood lymphocyte counts. The mice eventually die prematurely as the leukemic cells accumulate along with development of advanced lymphoadenopathy Importantly, the accumulated B-cells in these transgeneic TCL1 mice are G0-1 arrested and express CD19+/CD5+/IgM+ just as the human CLL cells (Bichi et al. (2002) Proc Natl Acad Sci USA, Vol. 99: 6955-6960). As further validation of these Eμ-TCL1 transgenic mice as an effective model of human CLL, CLL symptoms in the TCL1 transgenic mice improve following administration of fludarabine, a clinically used anti-CLL therapeutic. […] The effect of COG112 on CLL cell production and life expectancy in the Eμ-TCL1 transgenic mouse model of CLL is evaluated.
Animals (n=6) are treated with either 10 mg/kg of COG112 or a vehicle control daily by subcutaneous injection. After 15 days of treatment, blood is collected by retro-orbital bleeds and white bloods cells quantitated. White-blood cell counts are expected to be reduced in COG112-treated animals relative to the vehicle controls.
At the initiation of treatment, blood is drawn to determine baseline CD5+/CD19+ CLL cell counts and groups of animals (n=20) are treated with a vehicle control (lactated Ringer's solution) or COG112 at doses of 4.0, 1.0, or 0.25 mg/kg. COG112 or the vehicle control is delivered by intraperitoneal injection at a volume of 10 mL/kg. Animals receive injections daily Monday through Friday so that 5 doses are administered per week for 5 weeks (35 days of total treatment). Disease course is monitored by survival, total blood leukocyte and lymphocyte count, and CD19+/CD5+ cell count weekly.
Blood is collected from each mouse on a weekly basis by retro-orbital bleeds for determination of total blood leukocyte and lymphocyte counts as well as CD19+/CD5+ cell counts to assess the leukemia burden. After 5 weeks (35 days of treatment), mice are euthanized and the post treatment leukemia burden is measured by cell counting, spleen weight, and histological analysis of bone marrow, spleen, liver, and lymph nodes.

[4] abbreviates: 4.0, 1.0 or 0.25 mg/kg intraperitoneal, 5 weeks, versus vehicle.

One may read the EC50 as the concentration at which the effect is half-maximal. Lower therefore signals an effect from little substance. For “Ac-RQIKIWFQNRRMKWKKCLRVRLASHLRKLRKRLL-NH2 (N-terminus and C-terminus assumed) [COG112]”, in the data set on IκB Kinase (IκK), the IκK activity entry is recorded as “substantially reduced”. The “ED50 for induction of apoptosis” value in the data set with B-CLL cells [1] (B-CLL cells, Annexin V) is “closely mirrored the ED50 for cytotoxicity”. Further, in the data set on B-CLL cells [1] (increasing concentrations of COG112, flow cytometry, FIG. 5), the “apoptosis (Annexin-V+/propidium iodide+ cells)” value is listed as “dose-dependent increase in apoptosis”. In addition, the “Fold Change” value in the data set on B-CLL cells [2] (EC50 relative to COG056 control) worked out at 58.6. This substance displayed an EC50 with B-CLL cells [2] (human, 72 hours) of 0.22 ± 0.13 µM. Also, the “level of phosphorylated BCR/ABL” value with BCR/ABL fusion protein is reported as “dose-dependent reduction”. Moreover, the EC50 in data set [3] was ~20 µM. Moreover, the white-blood cell counts result in the data set with Eμ-TCL1 transgenic mice (10 mg/kg daily subcutaneous, 15 days, relative to vehicle) is listed as “reduced”. Also, in the data set with Eμ-TCL1 transgenic mice (setting [4]), the “CD19+/CD5+ cell counts” value is reported as “dose-dependent reduction”, the “CLL burden by histological analysis” value is “dose-dependent reduction”, the cumulative survival result is given as “dose-dependent increase” and the spleen weight result is “dose-dependent reduction”.

The values above are taken from US20110166079A1, “METHODS OF TREATING CANCER WITH APOE PEPTIDES” (COGNOSCI, INC., priority 2008, published 2011).
